{
  "source": "patent US8252723B2",
  "about": "“Substituted 1-(3-pyridinyl)pyrazol-4-ylacetic acids, processes for their preparation and their use as herbicides and plant growth regulators” (Bayer CropScience AG, priority 2006, dated 2012)",
  "data": [
    {"test_system": "summer wheat of the cultivar 'Triso'", "assay": "Plant growth regulation test: culm stabilization of crop plants", "type": "in vivo", "settings": "application rate of 30 to 300 g of active substance per hectare, treated at stage BBCH 31, culm length measured after ears had formed", "procedure,_shortened": "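Wettable-powder formulation with adjuvant (1 l/ha) sprayed at 300 l water/ha onto pot-grown plants at BBCH 31, then kept outdoors. After ear formation culm length was measured; culm stabilization is expressed as percent of untreated control.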", "values": [
      {"smiles": "COC(=O)Cc1c(C)nn(-c2cnccc2C)c1-c1ccc(Cl)c(C(F)(F)F)c1", "note": "[Example 2-48]", "longitudinal growth (culm length) of summer wheat": "effectively shortened"},
      {"smiles": "Cc1cc(C)cc(-c2c(CC(=O)O)c(C)nn2-c2cccnc2)c1", "note": "[Example 1-43]", "longitudinal growth (culm length) of summer wheat": "effectively shortened"},
      {"smiles": "Cc1nn(-c2cccnc2)c(-c2ccc(Cl)cc2)c1CC(=O)OC1COC1", "note": "[Example 3-232]", "longitudinal growth (culm length) of summer wheat": "effectively shortened"},
      {"smiles": "COC(=O)Cc1c(C)nn(-c2cccnc2)c1-c1ccc(Cl)cc1", "note": "[Example 2-26]", "longitudinal growth (culm length) of summer wheat": "effectively shortened"},
      {"smiles": "COC(=O)Cc1c(C)nn(-c2cccnc2)c1-c1ccc(F)cc1", "note": "[Example 2-120]", "longitudinal growth (culm length) of summer wheat": "effectively shortened"},
      {"smiles": "COC(=O)Cc1c(C)nn(-c2cnccc2Cl)c1-c1ccc(Cl)cc1", "note": "[Example 2-29]", "longitudinal growth (culm length) of summer wheat": "effectively shortened"},
      {"smiles": "Cc1ccncc1-n1nc(C)c(CC(=O)O)c1-c1ccc(Cl)cc1Cl", "note": "[Example 1-23]", "longitudinal growth (culm length) of summer wheat": "effectively shortened"},
      {"smiles": "COC(=O)Cc1c(C)nn(-c2cccnc2)c1-c1cc(C)cs1", "note": "[Example 2-59]", "longitudinal growth (culm length) of summer wheat": "effectively shortened"},
      {"smiles": "Cc1nn(-c2cnccc2[S+](C)[O-])c(-c2ccc(Cl)cc2)c1CC(=O)O", "note": "(stereo not shown) [Example 1-64]", "longitudinal growth (culm length) of summer wheat": "effectively shortened"},
      {"smiles": "COC(=O)Cc1c(C)nn(-c2cnccc2C(F)(F)F)c1-c1ccccc1", "note": "[Example 2-8]", "longitudinal growth (culm length) of summer wheat": "effectively shortened"},
      {"smiles": "C=CCOC(=O)Cc1c(C)nn(-c2cccnc2)c1-c1ccccc1", "note": "[Example 3-148]", "longitudinal growth (culm length) of summer wheat": "effectively shortened"},
      {"smiles": "Cc1ccc(-c2c(CC(=O)O)c(C)nn2-c2cccnc2)cc1", "note": "[Example 1-16]", "longitudinal growth (culm length) of summer wheat": "effectively shortened"},
      {"smiles": "COC(=O)Cc1c(C)nn(-c2cccnc2)c1-c1cccc(OC)n1", "note": "[Example 2-145]", "longitudinal growth (culm length) of summer wheat": "effectively shortened"},
      {"smiles": "Cc1ccncc1-n1ncc(CC(=O)O)c1-c1ccccc1", "note": "[Example 1-73]", "longitudinal growth (culm length) of summer wheat": "effectively shortened"},
      {"smiles": "COC(=O)Cc1c(C)nn(-c2cnccc2C)c1-c1ccc(Cl)s1", "note": "[Example 2-55]", "longitudinal growth (culm length) of summer wheat": "effectively shortened"},
      {"smiles": "COC(=O)Cc1c(C)nn(-c2cccnc2)c1-c1ccsc1", "note": "[Example 2-63]", "longitudinal growth (culm length) of summer wheat": "effectively shortened"},
      {"smiles": "Cc1ccncc1-n1nc(C)c(CC(=O)O)c1-c1ccc(C(F)(F)F)cc1", "note": "[Example 1-24]", "longitudinal growth (culm length) of summer wheat": "effectively shortened"},
      {"smiles": "COC(=O)Cc1c(C=O)nn(-c2cccnc2)c1-c1ccc(Cl)cc1", "note": "[Example 2-165]", "longitudinal growth (culm length) of summer wheat": "effectively shortened"},
      {"smiles": "Cc1nn(-c2cccnc2)c(-c2cccc(C(F)(F)F)c2)c1CC(=O)O", "note": "[Example 1-18]", "longitudinal growth (culm length) of summer wheat": "effectively shortened"},
      {"smiles": "Cc1ccncc1-n1nc(C)c(CC(=O)O)c1-c1ccc(Cl)c(C(F)(F)F)c1", "note": "[Example 1-48]", "longitudinal growth (culm length) of summer wheat": "effectively shortened"},
      {"smiles": "Cc1nn(-c2cccnc2)c(-c2ccc(Cl)c(C(F)(F)F)c2)c1CC(=O)O", "note": "[Example 1-47]", "longitudinal growth (culm length) of summer wheat": "effectively shortened"},
      {"smiles": "COC(=O)Cc1c(C)nn(-c2cnccc2C)c1-c1ccc(C(F)(F)F)cc1", "note": "[Example 2-24]", "longitudinal growth (culm length) of summer wheat": "effectively shortened"},
      {"smiles": "C#CC(C)OC(=O)Cc1c(C)nn(-c2cccnc2)c1-c1ccccc1", "note": "(stereo not shown) [Example 3-140]", "longitudinal growth (culm length) of summer wheat": "effectively shortened"},
      {"smiles": "C#CCOC(=O)Cc1c(C)nn(-c2cccnc2)c1-c1ccc(F)cc1", "note": "[Example 3-68]", "longitudinal growth (culm length) of summer wheat": "effectively shortened"},
      {"smiles": "Cc1ccc(-c2c(CC(=O)O)c(C)nn2-c2cccnc2)cc1Cl", "note": "[Example 1-46]", "longitudinal growth (culm length) of summer wheat": "effectively shortened"},
      {"smiles": "Cc1nn(-c2cccnc2)c(-c2ccccc2)c1CC(=O)OCC1CC1", "note": "[Example 3-77]", "longitudinal growth (culm length) of summer wheat": "effectively shortened"},
      {"smiles": "Cc1nn(-c2cccnc2)c(-c2ccc(O)nc2)c1CC(=O)O", "note": "[Example 1-70]", "longitudinal growth (culm length) of summer wheat": "effectively shortened"},
      {"smiles": "COC(=O)Cc1c(C)nn(-c2ccc(Cl)nc2Cl)c1-c1ccccc1", "note": "[Example 2-12]", "longitudinal growth (culm length) of summer wheat": "effectively shortened"},
      {"smiles": "COC(=O)Cc1c(C)nn(-c2cccnc2)c1-c1ccc(O)nc1", "note": "[Example 2-70]", "longitudinal growth (culm length) of summer wheat": "effectively shortened"},
      {"smiles": "Cc1ccncc1-n1nc(C)c(CC(=O)O)c1-c1cccc(C(F)(F)F)c1", "note": "[Example 1-19]", "longitudinal growth (culm length) of summer wheat": "effectively shortened"},
      {"smiles": "COC(=O)Cc1c(C)nn(-c2cnccc2C)c1-c1ccc2c(c1)OCO2", "note": "[Example 2-66]", "longitudinal growth (culm length) of summer wheat": "effectively shortened"},
      {"smiles": "Cc1ccc(-c2c(CC(=O)O)c(C)nn2-c2cnccc2C)cc1", "note": "[Example 1-36]", "longitudinal growth (culm length) of summer wheat": "effectively shortened"},
      {"smiles": "COc1cccc(-c2c(CC(=O)O)c(C)nn2-c2cccnc2)n1", "note": "[Example 1-145]", "longitudinal growth (culm length) of summer wheat": "effectively shortened"},
      {"smiles": "CCOC(=O)Cc1c(C)nn(-c2cccnc2)c1-c1ccccn1", "note": "[Example 3-227]", "longitudinal growth (culm length) of summer wheat": "effectively shortened"},
      {"smiles": "Cc1ccncc1-n1nc(C)c(CC(=O)O)c1-c1ccc(Cl)c(Cl)c1", "note": "[Example 1-20]", "longitudinal growth (culm length) of summer wheat": "effectively shortened"},
      {"smiles": "C#CCOC(=O)Cc1c(C)nn(-c2cccnc2)c1-c1ccncc1", "note": "[Example 3-74]", "longitudinal growth (culm length) of summer wheat": "effectively shortened"},
      {"smiles": "C=C(Cl)COC(=O)Cc1c(C)nn(-c2cccnc2)c1-c1ccccc1", "note": "[Example 3-184]", "longitudinal growth (culm length) of summer wheat": "effectively shortened"},
      {"smiles": "COC(=O)Cc1c(C(=O)OC)nn(-c2cccnc2)c1-c1ccccc1", "note": "[Example 2-127]", "longitudinal growth (culm length) of summer wheat": "effectively shortened"},
      {"smiles": "C#CCOC(=O)Cc1c(C)nn(-c2cccnc2)c1-c1ccccc1", "note": "[Example 3-54]", "longitudinal growth (culm length) of summer wheat": "effectively shortened"},
      {"smiles": "C=C(Cl)COC(=O)Cc1c(C)nn(-c2cccnc2)c1-c1ccc(C)nc1", "note": "[Example 3-195]", "longitudinal growth (culm length) of summer wheat": "effectively shortened"},
      {"smiles": "COC(=O)Cc1c(C)nn(-c2cnccc2C)c1-c1ccccc1Cl", "note": "[Example 2-22]", "longitudinal growth (culm length) of summer wheat": "effectively shortened"},
      {"smiles": "COC(=O)Cc1c(C)nn(-c2cccnc2)c1-c1ccc(C(C)(C)C)cc1", "note": "[Example 2-122]", "longitudinal growth (culm length) of summer wheat": "effectively shortened"},
      {"smiles": "Cc1ccnc(-c2c(CC(=O)O)c(C)nn2-c2cccnc2)c1", "note": "[Example 1-136]", "longitudinal growth (culm length) of summer wheat": "effectively shortened"},
      {"smiles": "COC(=O)Cc1c(CO)nn(-c2cccnc2)c1-c1ccc(Cl)cc1", "note": "[Example 2-184]", "longitudinal growth (culm length) of summer wheat": "effectively shortened"},
      {"smiles": "Cc1nn(-c2cccnc2)c(-c2ccccn2)c1CC(=O)O", "note": "[Example 1-109]", "longitudinal growth (culm length) of summer wheat": "effectively shortened"},
      {"smiles": "O=C(O)Cc1cnn(-c2cccnc2)c1-c1ccccc1", "note": "[Example 1-72]", "longitudinal growth (culm length) of summer wheat": "effectively shortened"},
      {"smiles": "COC(=O)Cc1c(C)nn(-c2cccnc2)c1-c1ccccc1Cl", "note": "[Example 2-31]", "longitudinal growth (culm length) of summer wheat": "effectively shortened"},
      {"smiles": "COC(=O)Cc1c(C)nn(-c2cnccc2C)c1-c1ccc(-c2ccccc2)cc1", "note": "[Example 2-41]", "longitudinal growth (culm length) of summer wheat": "effectively shortened"},
      {"smiles": "Cc1nn(-c2cnccc2C(F)(F)F)c(-c2ccccc2)c1CC(=O)O", "note": "[Example 1-8]", "longitudinal growth (culm length) of summer wheat": "effectively shortened"},
      {"smiles": "C=C(Cl)COC(=O)Cc1c(C)nn(-c2cccnc2)c1-c1sccc1C", "note": "[Example 3-188]", "longitudinal growth (culm length) of summer wheat": "effectively shortened"},
      {"smiles": "COC(=O)Cc1c(C)nn(-c2cccnc2)c1-c1ccc(Cl)cc1Cl", "note": "[Example 2-114]", "longitudinal growth (culm length) of summer wheat": "effectively shortened"},
      {"smiles": "Cc1csc(-c2c(CC(=O)O)c(C)nn2-c2cnccc2C)c1", "note": "[Example 1-54]", "longitudinal growth (culm length) of summer wheat": "effectively shortened"},
      {"smiles": "Cc1nn(-c2cccnc2)c(-c2ccc(C(=O)O)cc2)c1CC(=O)O", "note": "[Example 1-42]", "longitudinal growth (culm length) of summer wheat": "effectively shortened"},
      {"smiles": "COC(=O)Cc1c(C)nn(-c2cccnc2)c1-c1ccc(Cl)c(Cl)c1", "note": "[Example 2-27]", "longitudinal growth (culm length) of summer wheat": "effectively shortened"},
      {"smiles": "COC(=O)Cc1c(C)nn(-c2cnccc2C)c1-c1ccc(Cl)cc1Cl", "note": "[Example 2-23]", "longitudinal growth (culm length) of summer wheat": "effectively shortened"},
      {"smiles": "Cc1nn(-c2cccnc2)c(-c2ccccc2)c1CC(=O)OCC(F)=C(Cl)Cl", "note": "[Example 3-101]", "longitudinal growth (culm length) of summer wheat": "effectively shortened"},
      {"smiles": "O=C(Cc1cnn(-c2cccnc2)c1-c1ccccc1)OCC1CC1", "note": "[Example 3-100]", "longitudinal growth (culm length) of summer wheat": "effectively shortened"},
      {"smiles": "COC(=O)Cc1c(C)nn(-c2cnccc2C)c1-c1cccs1", "note": "[Example 2-52]", "longitudinal growth (culm length) of summer wheat": "effectively shortened"},
      {"smiles": "CC#CCOC(=O)Cc1c(C)nn(-c2cccnc2)c1-c1ccccn1", "note": "[Example 3-136]", "longitudinal growth (culm length) of summer wheat": "effectively shortened"},
      {"smiles": "COC(=O)Cc1c(C)nn(-c2cnccc2C)c1-c1ccc(C(C)(C)C)cc1", "note": "[Example 2-32]", "longitudinal growth (culm length) of summer wheat": "effectively shortened"},
      {"smiles": "COC(=O)Cc1c(C)nn(-c2cnccc2C)c1-c1ccc(Cl)c(Cl)c1", "note": "[Example 2-20]", "longitudinal growth (culm length) of summer wheat": "effectively shortened"},
      {"smiles": "Cc1cncc(-n2nc(C)c(CC(=O)O)c2-c2ccccc2)c1", "note": "[Example 1-50]", "longitudinal growth (culm length) of summer wheat": "effectively shortened"},
      {"smiles": "COC(=O)Cc1c(C)nn(-c2cnccc2C)c1-c1cc(C)cs1", "note": "[Example 2-54]", "longitudinal growth (culm length) of summer wheat": "effectively shortened"},
      {"smiles": "Cc1ccncc1-n1nc(C)c(CC(=O)O)c1-c1sccc1C", "note": "[Example 1-53]", "longitudinal growth (culm length) of summer wheat": "effectively shortened"},
      {"smiles": "COC(=O)Cc1c(C)nn(-c2cnccc2C)c1-c1ccc(C)c(Cl)c1", "note": "[Example 2-49]", "longitudinal growth (culm length) of summer wheat": "effectively shortened"},
      {"smiles": "Cc1nn(-c2cccnc2)c(-c2ccc(Cl)cc2)c1CC(=O)OCCN(C)C", "note": "[Example 3-231]", "longitudinal growth (culm length) of summer wheat": "effectively shortened"},
      {"smiles": "COC(=O)Cc1c(C)nn(-c2cnccc2C)c1-c1ccsc1", "note": "[Example 2-56]", "longitudinal growth (culm length) of summer wheat": "effectively shortened"}
    ]}
  ]
}
